Tests used:
maximal electroshock [1] = assay: Modified maximal electroshock test (100 Hz, 0.1 sec., 150 volt) of hydrolyzable silanes, oral; type: in vivo, male Carworth mice; settings: for ED50: Mus musculus, read-out: Maximal Electroshock ED50 (95% C.I.); for ED50 / Maximal Electroshock ED50 (95% C.I.): sesame oil; for anticonvulsant activity (in words): maximal electroshock
Protocol: (§1) The modified (100 Hz, 0.1 sec., 150 volt) maximal electroshock test was used to determine the anticonvulsant activity of several hydrolyzable silanes. Male Carworth mice were used as the test animal. All of the compounds were administered orally in a sesame oil carrier. […] The effective amount (ED50) for the compounds at three different time intervals after dosing was determined as previously described.

[2] = LD50, single dose in sesame oil, 14 days observation; parameters: species or system male Carworth mice; settings: mouse, in vivo, po, dead after 14 days
Protocol: as §1
The LD50 of certain silanes was determined by administering a single dose of the silane in sesame oil to groups of the male mice.

[3] = tested on: tonic extension of the hind limbs; assay: Electroshock test (60 Hz A.C., 0.2 second, 50 milliamp), i.p. dosing; type: in vivo, mice (female Swiss Webster)
Protocol: The electroshock test procedure was used to determine anticonvulsant activity of diphenylsilanediol. Adult female mice (Swiss Webster strain) were utilized as test animals. […] Seizure protection was scored as inhibition of tonic extension. Groups of mice (six/group) were dosed interperitonially with varying amounts of diphenylsilanediol in a 0.5% methylcellulose solution in distilled water. The dosages ranged from 10 to 100 mg./kg. and the electroshock was applied 30 minutes after dosing.
(§2) (ED99) to be 30 minutes after dosing, the half time of the effect to be about four hours, with some measurable anticonvulsant activity being noted up to 10 hours. The toxicity (LD50) of this silane solution (as freshly prepared) in mice, administered i.p., was determined to be 2500 mg./kg.

[4] = Acute toxicity (LD50), i.p.; settings: mouse, in vivo, ip, mice, freshly prepared solution
Protocol: as §2

maximal electroshock [5] = assay: Modified maximal electroshock (100 Hz, 0.1 second, 150 volts), intravenous dosing; type: in vivo, mice
Protocol: (§3) Mice were also dosed with a similar solution of diphenylsilanediol but by intravenous administration. The ED50 was determined to be 10 mg./kg. with a 5 minute peak time by a modified maximal electroshock technique in which stimulus was delivered at 100 Hz for 0.1 second at 150 volts.

maximal electroshock [6] = assay: Modified maximal electroshock, oral dosing via gastric intubation in sesame oil; type: in vivo, mice; settings: Mus musculus
Protocol: as §3
Oral dosing of mice via gastric intubation with the diphenylsilanediol suspended in sesame oil solution was also performed. Maximal electroshock (modified as described above) was again used to determine the amount necessary to provide an effective dose (ED50) at various time intervals after dosing.

[7] = tested on: Pentylenetetrazol-induced clonic seizures; assay: Pentylenetetrazol-induced seizure test (Swinyard's method); type: in vivo, mice (female Swiss Webster); settings: Mus musculus, ip, 0.5 h; i.p., 30 minutes before pentylenetetrazol; absence of clonic seizures
Protocol: (§4) Diphenylsilanediol was also tested to determine its effectiveness against chemically-induced seizures. Pentylenetetrazol and strychnine were the convulsant compounds used. Pentylenetetrazol testing was performed in accordance with Swinyard's method as described in J. Am. Pharm. Assoc. 38:201, 1949, while styrchnine tests were made by the method of Everett and Richards as described in J. Pharm. Exp. Ther. 81:402, 1944.
(§5) The silane (in 0.5% aqueous methylcellulose) was administered i.p. to groups of 6 mice (female Swiss Webster) at doses of 10, 30, 100 and 300 mg./kg. The silane solution was administered 30 minutes before injection with one of the convulsant drugs. The end point for scoring effectiveness was the absence of clonic seizures during the 30 minute period subsequent to administration of the convulsant -- this same criterion was utilized in conducting the strychnine tests. In both tests, effective amounts (ED50) of the silane were equivalent with the pentylenetetrazol-induced convulsion requiring 58 mg./kg. and the styrchnine tests showing 60 mg./kg. as the ED50.

[8] = tested on: strychnine-induced seizures; assay: Strychnine-induced seizure test (method of Everett and Richards); type: in vivo, mice (female Swiss Webster); settings: Mus musculus, ip, 0.5 h
Protocol: as §4, §5

[9] = tested on: idiopathic epilepsy, grand mal seizures of the clonic type; assay: Control of seizures in a dog with idiopathic epilepsy; type: in vivo, dog (German Shepard)
Protocol: A young adult dog (German Shepard) was diagnosed as having idiopathic epilepsy after having grand mal seizures of the clonic type.
After five days of dosing, the same amount was administered orally in 250 mg. capsules for a period of 10 days.

[10] = after cessation of 10 mg./kg. oral dose twice daily
[11] = after discontinuation of 500 mg. regimen

Row | Compound | ED50 (maximal electroshock [1]; 2 hrs. after dosing) [mg/kg] | ED50 (maximal electroshock [1]; 4 hrs. after dosing) [mg/kg] | ED50 (maximal electroshock [1]; 6 hrs. after dosing) [mg/kg] | LD50 at 336 h [2] [mg/kg] | also measured
1 | CC(=O)O[Si](OC(C)=O)(c1ccccc1)c1ccccc1 | 43 | 11 | 50 | – | –
2 | CN[Si](NC)(c1ccccc1)c1ccccc1 | 68 | 70 | 153 | – | –
3 | CCO[SiH](c1ccccc1)c1ccccc1 | 22 | 21 | 46 | – | –
4 | N[Si](N)(c1ccccc1)c1ccccc1 [.phi.2 Si(NH2)2] | 56 | 68 | 100 | – | –
5 | CCO[Si](OCC)(c1ccccc1)c1ccccc1 [.phi.2 Si(OC2 H5)2] | 37 | 50 | 22 | 1720 | –
6 | CO[Si](OC)(c1ccccc1)c1ccccc1 [.phi.2 Si(OCH3)2] | 39 | 26 | 52 | 1060 | –
7 | O[Si](O)(c1ccccc1)c1ccccc1 [.phi.2 Si(ONa)2] | 37 | 61 | 90 | – | –
8 | CC(C)O[Si](OC(C)C)(c1ccccc1)c1ccccc1 [.phi.2 Si(Oi-C3 H7)2] | – | 99 | 66 | 990 | Maximal Electroshock ED50 (95% C.I.) (maximal electroshock [1]; 2 hrs. after dosing): no protection
9 | CCCO[Si](OCCC)(c1ccccc1)c1ccccc1 [.phi.2 Si(On-C3 H7)2] | – | 89 | 32 | 1000 | Maximal Electroshock ED50 (95% C.I.) (maximal electroshock [1]; 2 hrs. after dosing): no protection
10 | CCCCO[Si](OCCCC)(c1ccccc1)c1ccccc1 [.phi.2 Si(On-C4 H9)2, diphenyl-di-n-butoxysilane, reference compound] | – | 1000 | 1000 | 5300 | anticonvulsant activity (in words) (maximal electroshock [1]): no observed activity; Maximal Electroshock ED50 (95% C.I.) (maximal electroshock [1]; 2 hrs. after dosing): no protection
11 | CCCCS[Si](SCCCC)(c1ccccc1)c1ccccc1 [.phi.2 Si(SC4 H9)2] | 290 | 65 | 65 | – | –
12 | c1ccc([SiH2]c2ccccc2)cc1 [.phi.2 SiH2] | 28 | 25 | 28 | 924 | –
13 | CN(C)[Si](c1ccccc1)(c1ccccc1)N(C)C [.phi.2 Si[N(CH3)2]2] | 50 | 50 | 56 | – | –
14 | CCN(CC)CCO[Si](OCCN(CC)CC)(c1ccccc1)c1ccccc1 [.phi.2 Si[OCH2 CH2 N(C2 H5)2]2] | 52 | 84 | 168 | – | –
15 | O[Si](O)(c1ccccc1)c1ccccc1 [diphenylsilanediol] | – | – | – | – | half time of the effect ([3]; 25 mg./kg. (ED99)): about four; peak time of the anticonvulsant effect ([3]; 25 mg./kg. (ED99)): 30 min; some measurable anticonvulsant activity noted up to ([3]; 25 mg./kg. (ED99)): up to 10 hours; ED99 ([3]; Mus musculus, ip, 0.5 h): 25 mg/kg; ED50 ([3]; Mus musculus, ip, 0.5 h, 0.5% methylcellulose, electroshock 30 minutes after dosing, read-out: effective dose to prevent convulsions in half the animals (ED50)): 20 mg/kg; LD50 [4]: 2500 mg/kg; peak time (maximal electroshock [5]): 5 min; ED50 (maximal electroshock [5]; Mus musculus, 5 min): 10 mg/kg; ED50 (maximal electroshock [6]; 2 hrs. after dosing): 25 mg/kg; ED50 (maximal electroshock [6]; 4 hrs. after dosing): 37 mg/kg; ED50 (maximal electroshock [6]; 6 hrs. after dosing): 60 mg/kg; ED50 [7]: 58 mg/kg; ED50 [8]: 60 mg/kg; control of seizures ([9]; 500 mg. intramuscularly twice per day): effective in controlling seizures; seizures during 15 day period ([9]; 500 mg. twice per day, 5 days intramuscular then 10 days oral (250 mg. capsules)): did not experience seizures; first seizure postdose [9, 10]: 30 h; interval of seizures after cessation [9, 10]: three; first seizure after the last dose [9, 11]: 39 h; interval of seizures after discontinuation [9, 11]: about four; elimination of seizures ([9]; one-half the previous dosage, 10 mg./kg. orally twice daily, 10 days): effective in eliminating seizures
16 | O[Si](O[Si](O)(c1ccccc1)c1ccccc1)(c1ccccc1)c1ccccc1 [reference compound] | 1000 | 1000 | 1000 | – | anticonvulsant activity (in words) (maximal electroshock [1]): no anticonvulsant activity

Reference: patent US4006226A, “Anticonvulsant diphenylsilanes” (priority 1976, dated 1977)
